From the supplement of paper PMC10307832

Assays:
Test in all cases: relative viability (nuclei count vs DMSO), 5 days (fraction); higher = more cells survive
Afatinib + Phenformin = compound: CN(C)C/C=C/C(=O)Nc1cc2c(Nc3ccc(F)c(Cl)c3)ncnc2cc1O[C@H]1CCOC1 [Afatinib] + N=C(N)NC(=N)NCCc1ccccc1 [Phenformin] (partner 250 µM)
Summary of the method: (§1)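 Lung cancer cell lines, seeded in 1536-well plates, were treated the following day by pin tool with a single drug or with five library-drug doses (not always all listed) in √10 steps on top of a fixed anchor-drug dose. Cells were fixed and nuclei stained in one step after 5 days, and nuclei were counted. Relative viability is the nuclei count for treated wells divided by that for vehicle wells, reported as medians of duplicate plates.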

Afatinib + Olaparib = compound: CN(C)C/C=C/C(=O)Nc1cc2c(Nc3ccc(F)c(Cl)c3)ncnc2cc1O[C@H]1CCOC1 [Afatinib] + O=C(c1cc(Cc2n[nH]c(=O)c3ccccc23)ccc1F)N1CCN(C(=O)C2CC2)CC1 [Olaparib] (partner 8 µM)
Summary of the method: as §1

Afatinib + Trametinib = compound: CN(C)C/C=C/C(=O)Nc1cc2c(Nc3ccc(F)c(Cl)c3)ncnc2cc1O[C@H]1CCOC1 [Afatinib] + CC(=O)Nc1cccc(-n2c(=O)n(C3CC3)c(=O)c3c(Nc4ccc(I)cc4F)n(C)c(=O)c(C)c32)c1 [Trametinib] (partner 0.02 µM)
Summary of the method: as §1

Afatinib = compound: CN(C)C/C=C/C(=O)Nc1cc2c(Nc3ccc(F)c(Cl)c3)ncnc2cc1O[C@H]1CCOC1 [Afatinib]
Summary of the method: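 Hoechst staining, done together with fixation and permeabilisation, marked nuclei for 4× imaging and MetaXpress counting. This followed 5 days without medium change after lung cancer cell lines, kept overnight at 37 °C in 1536-well plates, were pinned with five library-drug doses (not always all listed) spaced by √10 on vehicle-anchored plates. Viability is the ratio of treated-well to vehicle-well nuclei, expressed as a median across plates. Plates passed only at control CV below 25% with at least one doubling.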

| Cell Line | relative viability (Afatinib + Phenformin; first compound 0.005 µM) | relative viability (Afatinib + Phenformin; first compound 0.01581 µM) | relative viability (Afatinib + Phenformin; first compound 0.05 µM) | relative viability (Afatinib + Phenformin; first compound 0.1581 µM) | relative viability (Afatinib + Phenformin; first compound 0.5 µM) | relative viability (Afatinib + Olaparib; first compound 0.005 µM) | relative viability (Afatinib + Olaparib; first compound 0.01581 µM) | relative viability (Afatinib + Olaparib; first compound 0.05 µM) | relative viability (Afatinib + Olaparib; first compound 0.1581 µM) | relative viability (Afatinib + Olaparib; first compound 0.5 µM) | relative viability (Afatinib + Trametinib; first compound 0.005 µM) | relative viability (Afatinib + Trametinib; first compound 0.01581 µM) | relative viability (Afatinib + Trametinib; first compound 0.05 µM) | relative viability (Afatinib + Trametinib; first compound 0.1581 µM) | relative viability (Afatinib + Trametinib; first compound 0.5 µM) | relative viability (Afatinib; 0.005 µM) | relative viability (Afatinib; 0.01581 µM) | relative viability (Afatinib; 0.05 µM) | relative viability (Afatinib; 0.1581 µM) | relative viability (Afatinib; 0.5 µM) |
| --- | --- | --- | --- | --- | --- | --- | --- | --- | --- | --- | --- | --- | --- | --- | --- | --- | --- | --- | --- | --- |
| NCI-H1755 | 0.677 | 0.663 | 0.823 | 0.578 | 0.617 | 0.906 | 0.857 | 0.921 | 0.864 | 0.813 | 0.767 | 0.792 | 0.807 | 0.679 | 0.792 | 0.997 | 0.983 | 1.05 | 1 | 1.02 |
| NCI-H1437 | 0.333 | 0.294 | 0.334 | 0.358 | 0.302 | 0.657 | 0.64 | 0.642 | 0.596 | 0.569 | 0.434 | 0.413 | 0.472 | 0.414 | 0.434 | 1.02 | 0.987 | 0.993 | 0.984 | 0.997 |
| NCI-H2085 | 0.614 | 0.629 | 0.606 | 0.509 | 0.542 | 0.751 | 0.691 | 0.659 | 0.603 | 0.648 | 0.433 | 0.507 | 0.692 | 0.513 | 0.457 | 0.99 | 0.958 | 0.856 | 0.757 | 0.858 |
| H3255 | 0.228 | 0.23 | 0.203 | 0.202 | 0.228 | 0.332 | 0.273 | 0.277 | 0.277 | 0.236 | 0.297 | 0.208 | 0.288 | 0.195 | 0.237 | 0.418 | 0.237 | 0.244 | 0.244 | 0.26 |
| NCI-H650 | 0.498 | 0.46 | 0.446 | 0.498 | 0.351 | 0.339 | 0.429 | 0.441 | 0.407 | 0.399 | 0.947 | 0.983 | 0.991 | 0.969 | 1.01 | 1.06 | 0.974 | 1.07 | 0.89 | 0.875 |
| LCLC-103H | 0.319 | 0.358 | 0.326 | 0.37 | 0.353 | 0.743 | 0.744 | 0.764 | 0.682 | 0.773 | 0.602 | 0.698 | 0.736 | 0.634 | 0.697 | 0.962 | 0.945 | 0.974 | 0.945 | 1.03 |
| LOU-NH91 | 0.342 | 0.45 | 0.477 | 0.394 | 0.548 | 0.701 | 0.704 | 0.701 | 0.687 | 0.742 | 0.718 | 0.683 | 0.718 | 0.671 | 0.727 | 0.784 | 0.813 | 0.887 | 0.73 | 0.791 |
| NCI-H1650 | 0.368 | – | 0.351 | 0.308 | 0.308 | 0.784 | 0.708 | 0.804 | 0.712 | 0.547 | 0.431 | 0.357 | 0.475 | 0.484 | 0.365 | 0.755 | – | 0.896 | 0.696 | 0.736 |
| NCI-H3122 | 0.385 | 0.382 | 0.415 | 0.363 | 0.423 | 0.619 | 0.628 | 0.57 | 0.632 | 0.68 | 0.186 | 0.192 | 0.224 | 0.248 | 0.223 | 0.999 | 1.01 | 1.01 | 0.929 | 0.999 |
| PC-3 [JPC-3] | 0.338 | 0.338 | 0.258 | 0.285 | 0.306 | 0.608 | 0.453 | 0.472 | 0.456 | 0.476 | 0.441 | 0.4 | 0.443 | 0.285 | 0.438 | 0.553 | 0.406 | 0.443 | 0.439 | 0.469 |
| NCI-H1651 | 0.368 | 0.333 | 0.288 | 0.329 | 0.332 | 0.173 | 0.186 | 0.179 | 0.17 | 0.21 | 0.856 | 0.862 | 0.838 | 0.808 | 0.785 | 1.07 | 0.949 | 0.941 | 0.961 | 0.915 |
| NCI-H2087 | 0.454 | 0.475 | 0.446 | 0.446 | 0.373 | 0.511 | 0.669 | 0.609 | 0.525 | 0.593 | 0.223 | 0.147 | 0.183 | 0.117 | 0.15 | 1.06 | 0.857 | 1.04 | 0.998 | 0.895 |
